For 14 compounds, TGI results are on record in PubChem BioAssay (NCI).

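Tested at 5 concentrations; 48 h exposure; 96-well plates; endpoints linearly interpolated, else capped at highest concentration. At the TGI there is no net growth.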

Common to all, as to experiment: NCI anticancer screen, dose series, 48 h
The subject of assay [1] is SK-OV-3 ovarian.
Assay [2] relates to CAKI-1 renal.
The test system of assay [3] is OVCAR-3 ovarian.
Assay [4] concerns RPMI-8226 leukemia.
Assay [5] concerns HOP-92 NSCLC.
Assay [6] deals with MALME-3M melanoma.
The subject of assay [7] is NCI-H23 lung.
Assay [8] concerns UO-31 renal.
For assay [9], the system named is 786-0 renal.
Assay [10] relates to ACHN renal.
Assay [11] has as its system NCI-H226 lung.
Assay [12] concerns MDA-MB-231 breast.

In the case of `c1ccc2c(c1)OCCOCCOc1ccccc1OCCO2`, the TGI in [1] was more than 100 µM; in [2], more than 100 µM; in assay [3], 70 µM; in assay [4], 70.2 µM; in assay [5], more than 100 µM; in assay [6], 88.2 µM. Further, the TGI in assay [7], in [8], in assay [9], in assay [10] and in assay [11] was more than 100 µM in each case.
In the case of `COc1cc(Nc2nc3cc(C(F)(F)F)ccc3nc2C(=O)O)cc(OC)c1OC`, the TGI in assay [2] was 99 µM; in assay [3], more than 100 µM; in assay [5] it was 85 µM; in assay [6], more than 100 µM; in [7] it was more than 100 µM; in assay [8] it was more than 100 µM. The TGI was more than 100 µM in assay [9], 70.3 µM in assay [12], more than 100 µM in assay [10] and more than 100 µM in [11].
For the compound `CSc1ccc2c(cc1=O)[C@@H](NC(=O)c1cc(O)c(O)c(O)c1)CCc1cc(O)c(O)c(O)c1-2`, the TGI in [1] was more than 100 µM; in assay [3] it was 70 µM; in [6], 93.3 µM; in assay [7] it was 39.7 µM; in assay [8], 83.8 µM; in assay [9], more than 100 µM. The TGI in assay [10] was more than 100 µM; in [11] it was 35 µM.
Take `NC1(CCNC(=O)c2ccccc2)CCN(C(=O)c2ccccc2)CC1`: the TGI in [1], in [2], in [4], in assay [5], in assay [6] and in [7] was more than 100 µM each time. Moreover, the TGI in [8], in assay [9], in assay [10] and in [11] was more than 100 µM throughout.
On to `COc1ccc(/C=N/N=C(\N)NO)c(OC)c1C`, for which the TGI is more than 100 µM in assay [1]; 46.4 µM in [2]; more than 100 µM in [3]; more than 100 µM in [4]; 72.5 µM in [5]; 35.2 µM in assay [6]. Besides, the TGI in [7] stood at 60.6 µM; in [8], 31.7 µM; in [9], 67.7 µM; in assay [10] it was 43.1 µM; in assay [11], 49.5 µM.
Take `CN1CCCOC(c2ccc(Cl)cc2)O1` (centres undefined): the TGI in [1], in assay [2], in [3], in assay [5], in assay [6] and in assay [7] was more than 100 µM throughout. In addition, the TGI in assay [8], in assay [9], in assay [12], in [10] and in assay [11] was more than 100 µM in each case.
For the compound `CCOC(=O)CCC(NC(=O)c1ccc(NCc2ccc3nc(-c4ccccc4)c(Cl)nc3c2)cc1)C(=O)OCC` (centres undefined), the TGI in assay [1] is more than 100 µM; in [2], more than 100 µM; in assay [3] it was 59.2 µM; in assay [4], 81.2 µM; in assay [5], 27.3 µM; in [6], 26 µM. Also, the TGI in [7] is more than 100 µM; in assay [8] it was 65.8 µM; in assay [9], more than 100 µM; in assay [10] it was more than 100 µM; in assay [11], more than 100 µM.
Turning to `Cc1n[n+](Cc2ccccc2)c2sc(N)nn12`, the TGI in [1], in assay [2], in assay [3], in assay [4], in [6] and in assay [7] was more than 100 µM in each case. Besides, the TGI in assay [8], in assay [9], in assay [10] and in [11] was more than 100 µM throughout.
On to `O=Cc1ccc(-c2ccc(-c3ccc(CO)s3)o2)s1`, for which the TGI in assay [1] was 78.8 µM; in assay [5], 61.5 µM; in [6] it was more than 66.8 µM; in assay [7] it was more than 76.7 µM; in assay [8] it was more than 71.3 µM; in [9], more than 48.9 µM. The results for the TGI in [12], in assay [10] and in assay [11] were more than 80.3 µM, more than 100 µM and 0.291 µM, respectively.
As for `NC(=O)c1cn(Cc2ccccc2)c(=O)n1Cc1ccccc1`, the TGI in [1], in [2], in assay [3], in [4], in assay [5] and in assay [7] was more than 100 µM each time. In addition, the TGI in [8], in [9], in assay [10] and in [11] was more than 100 µM in each case.
As for `CC(=O)O[C@]12CCCCCC1C1(O)C(O)CCCCC12` (some centres undefined), the TGI in assay [1], in assay [4], in [6], in [7], in [8] and in assay [9] was more than 100 µM in each case. In addition, the TGI in assay [10] and in [11] was more than 100 µM throughout.
With `C1COCCSC2=C(SCCO1)SC(=C1SC3=C(SCCOCCOCCS3)S1)S2`, the TGI in assay [1], in assay [2], in [3], in assay [5], in assay [6] and in [7] was more than 100 µM throughout. Also, the TGI in assay [8], in assay [9], in [10] and in assay [11] was more than 100 µM in each case.
Consider `COc1ccc(C2(CC(C)C)CCN(S(=O)(=O)c3ccc(C)cc3)C2)cc1OC` (centres undefined), for which the TGI is more than 100 µM in [1]; more than 100 µM in [2]; 55.8 µM in assay [3]; more than 100 µM in [7]; more than 100 µM in assay [8]; more than 100 µM in assay [9]. Further, the TGI in [12], in [10] and in assay [11] was more than 100 µM each time.
`C1=NC(N(Cc2ccccc2)Cc2ccccc2)N(Cc2ccccc2)N1` (centres undefined): the TGI in assay [1] is 67.2 µM; in [2] it was 46.1 µM; in assay [3], 27.3 µM; in assay [4] it was 32.9 µM; in [5] it was 25.6 µM; in [6], 25.8 µM. The TGI in [7] is 54.9 µM; in assay [8], 33.9 µM; in assay [9] it was 35.4 µM; in [10], 57 µM; in [11], 33.5 µM.
